Reference: the kinase profiling compilation of Christmann-Franck et al. (2016)

Columns and labels:
Assay in all cases: radiometric filter-binding kinase assay
DYRK2 (human) = DYRK2 (human) (UniProt Q92630)
PAK6 (human) = PAK6 (human) (UniProt Q9NQU5)
MAP3K9 (human) = MAP3K9 (human) (UniProt P80192)
MARK1 (human) = MARK1 (human) (UniProt Q9P0L2)
BTK (human) = BTK (human) (UniProt Q06187)
EPHA2 (human) = EPHA2 (human) (UniProt P29317)
HIPK2 (human) = HIPK2 (human) (UniProt Q9H2X6)
MAPK11 (human) = MAPK11 (human) (UniProt Q15759)
PRKCZ (human) = PRKCZ (human) (UniProt Q05513)
PRKCZ (human), sequence (Q05513 whole entry, looked up): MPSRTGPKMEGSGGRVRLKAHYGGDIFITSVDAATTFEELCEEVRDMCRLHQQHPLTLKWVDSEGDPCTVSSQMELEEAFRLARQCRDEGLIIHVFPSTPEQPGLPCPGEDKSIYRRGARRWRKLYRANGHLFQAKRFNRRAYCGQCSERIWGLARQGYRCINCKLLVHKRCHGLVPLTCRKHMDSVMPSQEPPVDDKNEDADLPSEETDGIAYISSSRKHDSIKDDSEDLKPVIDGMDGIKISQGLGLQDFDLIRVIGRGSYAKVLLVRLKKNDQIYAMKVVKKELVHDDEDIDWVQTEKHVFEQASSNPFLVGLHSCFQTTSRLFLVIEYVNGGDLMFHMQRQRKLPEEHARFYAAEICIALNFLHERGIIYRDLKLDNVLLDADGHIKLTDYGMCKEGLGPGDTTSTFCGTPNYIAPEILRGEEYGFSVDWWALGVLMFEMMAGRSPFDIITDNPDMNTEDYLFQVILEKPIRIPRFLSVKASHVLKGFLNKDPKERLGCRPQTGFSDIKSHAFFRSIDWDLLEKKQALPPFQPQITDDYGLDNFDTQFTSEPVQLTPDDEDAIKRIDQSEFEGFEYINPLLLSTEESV

CaMK1 (human) = CaMK1 (human) (UniProt Q14012)
MAPK14 (human) = MAPK14 (human) (UniProt Q16539)
MAPK13 (human) = MAPK13 (human) (UniProt O15264)
MAPK13 (human), sequence (O15264 whole entry, looked up): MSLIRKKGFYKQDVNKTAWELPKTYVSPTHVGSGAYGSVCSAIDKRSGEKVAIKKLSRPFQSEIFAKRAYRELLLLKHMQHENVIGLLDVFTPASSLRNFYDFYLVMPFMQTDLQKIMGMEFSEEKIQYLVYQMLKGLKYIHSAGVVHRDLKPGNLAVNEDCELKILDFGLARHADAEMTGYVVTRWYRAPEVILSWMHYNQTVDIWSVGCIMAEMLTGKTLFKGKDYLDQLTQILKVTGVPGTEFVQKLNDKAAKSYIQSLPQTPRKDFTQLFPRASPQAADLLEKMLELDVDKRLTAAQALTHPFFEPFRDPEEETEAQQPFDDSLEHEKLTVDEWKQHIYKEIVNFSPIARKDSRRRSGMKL

MARK3 (human) = MARK3 (human) (UniProt P27448)
NUAK1 (human) = NUAK1 (human) (UniProt O60285)
IKBKE (human) = IKBKE (human) (UniProt Q14164)
MAP2K6 (human) = MAP2K6 (human) (UniProt P52564)
PAK7 (human) = PAK7 (human) (UniProt Q9P286)
PAK7 (human), sequence (Q9P286 whole entry, looked up): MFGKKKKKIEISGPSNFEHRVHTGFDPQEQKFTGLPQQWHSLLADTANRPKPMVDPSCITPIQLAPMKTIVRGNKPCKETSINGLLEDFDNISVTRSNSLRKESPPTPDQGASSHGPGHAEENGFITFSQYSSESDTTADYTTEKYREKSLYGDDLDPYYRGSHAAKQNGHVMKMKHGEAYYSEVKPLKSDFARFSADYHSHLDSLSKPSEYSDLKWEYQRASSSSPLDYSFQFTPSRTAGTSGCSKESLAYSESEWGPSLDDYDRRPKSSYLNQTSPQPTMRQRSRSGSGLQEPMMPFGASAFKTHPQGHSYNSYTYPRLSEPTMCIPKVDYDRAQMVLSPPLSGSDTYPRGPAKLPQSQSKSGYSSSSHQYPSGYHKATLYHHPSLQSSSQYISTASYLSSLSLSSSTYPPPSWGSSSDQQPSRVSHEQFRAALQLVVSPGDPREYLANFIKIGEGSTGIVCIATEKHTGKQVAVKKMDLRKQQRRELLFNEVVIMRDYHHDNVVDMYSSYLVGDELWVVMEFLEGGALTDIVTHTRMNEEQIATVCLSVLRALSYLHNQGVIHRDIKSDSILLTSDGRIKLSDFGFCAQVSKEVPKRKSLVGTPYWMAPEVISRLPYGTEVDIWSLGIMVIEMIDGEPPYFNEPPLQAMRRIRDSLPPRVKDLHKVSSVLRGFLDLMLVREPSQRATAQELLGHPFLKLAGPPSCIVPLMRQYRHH

EPHB3 (human) = EPHB3 (human) (UniProt P54753)
MST4 (human) = MST4 (human) (UniProt Q9P289)
MAPKAPK5 (human) = MAPKAPK5 (human) (UniProt Q8IW41)
MAPKAPK5 (human), sequence (Q8IW41 whole entry, looked up): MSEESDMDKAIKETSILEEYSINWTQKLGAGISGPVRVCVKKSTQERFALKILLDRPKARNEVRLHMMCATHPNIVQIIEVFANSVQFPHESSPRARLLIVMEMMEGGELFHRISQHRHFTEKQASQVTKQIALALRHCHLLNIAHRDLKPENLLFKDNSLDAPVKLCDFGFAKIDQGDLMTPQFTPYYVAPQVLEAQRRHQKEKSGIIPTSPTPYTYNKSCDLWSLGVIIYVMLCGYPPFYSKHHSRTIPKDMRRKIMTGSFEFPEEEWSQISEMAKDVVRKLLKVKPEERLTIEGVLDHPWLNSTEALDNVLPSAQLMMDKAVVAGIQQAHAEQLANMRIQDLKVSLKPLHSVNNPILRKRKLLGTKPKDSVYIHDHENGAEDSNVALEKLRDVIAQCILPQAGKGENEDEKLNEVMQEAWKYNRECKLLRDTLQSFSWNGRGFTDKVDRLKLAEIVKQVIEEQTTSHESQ

HIPK3 (human) = HIPK3 (human) (UniProt Q9H422)
HIPK1 (human) = HIPK1 (human) (UniProt Q86Z02)
HIPK1 (human), sequence (Q86Z02 whole entry, looked up): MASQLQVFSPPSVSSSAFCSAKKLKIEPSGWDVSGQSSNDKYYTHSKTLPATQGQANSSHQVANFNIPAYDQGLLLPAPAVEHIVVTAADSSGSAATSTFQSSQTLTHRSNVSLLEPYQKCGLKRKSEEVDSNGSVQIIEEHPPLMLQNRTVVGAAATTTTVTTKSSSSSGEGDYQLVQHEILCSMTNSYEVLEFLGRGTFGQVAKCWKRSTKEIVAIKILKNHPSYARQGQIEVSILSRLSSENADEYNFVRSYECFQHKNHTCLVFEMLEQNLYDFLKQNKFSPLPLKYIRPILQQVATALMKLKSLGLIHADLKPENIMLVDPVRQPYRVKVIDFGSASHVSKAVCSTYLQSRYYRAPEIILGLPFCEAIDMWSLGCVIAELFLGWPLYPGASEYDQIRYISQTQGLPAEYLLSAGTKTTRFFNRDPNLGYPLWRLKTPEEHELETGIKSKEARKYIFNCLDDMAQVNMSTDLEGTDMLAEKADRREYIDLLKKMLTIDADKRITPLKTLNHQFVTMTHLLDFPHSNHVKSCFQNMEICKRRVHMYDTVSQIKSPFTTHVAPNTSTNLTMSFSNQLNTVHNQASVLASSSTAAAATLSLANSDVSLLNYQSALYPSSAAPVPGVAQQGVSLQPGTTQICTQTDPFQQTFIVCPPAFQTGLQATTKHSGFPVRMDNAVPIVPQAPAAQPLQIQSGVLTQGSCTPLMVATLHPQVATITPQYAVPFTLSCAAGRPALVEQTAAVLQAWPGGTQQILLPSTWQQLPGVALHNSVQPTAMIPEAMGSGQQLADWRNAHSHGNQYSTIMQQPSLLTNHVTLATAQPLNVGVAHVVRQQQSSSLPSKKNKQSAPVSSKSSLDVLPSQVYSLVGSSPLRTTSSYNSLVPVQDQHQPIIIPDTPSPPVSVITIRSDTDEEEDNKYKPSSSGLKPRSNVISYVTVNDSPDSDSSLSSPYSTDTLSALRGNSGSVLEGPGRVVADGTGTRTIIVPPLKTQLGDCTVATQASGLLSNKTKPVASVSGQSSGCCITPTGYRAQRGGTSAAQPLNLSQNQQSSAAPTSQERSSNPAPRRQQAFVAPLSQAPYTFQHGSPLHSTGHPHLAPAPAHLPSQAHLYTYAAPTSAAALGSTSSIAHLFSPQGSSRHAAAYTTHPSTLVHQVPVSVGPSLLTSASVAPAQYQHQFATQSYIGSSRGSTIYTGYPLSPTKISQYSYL

LCK (mouse) = conditions: accession and sequence are those of the human protein
PAK4 (human) = PAK4 (human) (UniProt O96013)
ERBB4 (human) = ERBB4 (human) (UniProt Q15303)
CSNK2A1 (human) = CSNK2A1 (human) (UniProt P68400)
DYRK1A (human) = DYRK1A (human) (UniProt Q13627)
[1] = tested on: AKT1 (human), P31749 [S473D]
EEF2K (human) = EEF2K (human) (UniProt O00418)
DYRK3 (human) = DYRK3 (human) (UniProt O43781)
ROCK2 (rat) = conditions: accession and sequence are those of the human protein
TAOK1 (human) = TAOK1 (human) (UniProt Q7L7X3)
NEK6 (human) = NEK6 (human) (UniProt Q9HC98)
DAPK1 (human) = DAPK1 (human) (UniProt P53355)
RPS6KA5 KD1 KD2 (human) = RPS6KA5 KD1 KD2 (human) (UniProt O75582)
EPHB1 (human) = EPHB1 (human) (UniProt P54762)

PAK6 (human), sequence (Q9NQU5 whole entry, looked up): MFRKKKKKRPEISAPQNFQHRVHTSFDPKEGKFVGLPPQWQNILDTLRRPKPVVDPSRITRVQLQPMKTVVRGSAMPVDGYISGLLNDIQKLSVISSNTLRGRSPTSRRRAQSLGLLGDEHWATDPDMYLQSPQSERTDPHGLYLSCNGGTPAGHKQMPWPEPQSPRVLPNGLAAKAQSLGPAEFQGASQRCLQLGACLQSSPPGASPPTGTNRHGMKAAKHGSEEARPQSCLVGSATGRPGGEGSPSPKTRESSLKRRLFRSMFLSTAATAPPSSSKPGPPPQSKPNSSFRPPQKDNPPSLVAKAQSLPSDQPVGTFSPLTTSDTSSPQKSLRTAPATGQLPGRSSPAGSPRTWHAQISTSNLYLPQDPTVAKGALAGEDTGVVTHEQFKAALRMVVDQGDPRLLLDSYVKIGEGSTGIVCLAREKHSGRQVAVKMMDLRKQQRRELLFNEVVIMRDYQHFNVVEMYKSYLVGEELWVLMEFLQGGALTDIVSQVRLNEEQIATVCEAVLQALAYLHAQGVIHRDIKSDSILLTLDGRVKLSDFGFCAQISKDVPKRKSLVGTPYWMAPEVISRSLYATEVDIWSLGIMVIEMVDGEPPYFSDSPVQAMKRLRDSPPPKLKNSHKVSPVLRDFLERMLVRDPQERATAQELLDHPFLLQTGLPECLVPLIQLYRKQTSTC
EPHA2 (human), sequence (P29317 whole entry, looked up): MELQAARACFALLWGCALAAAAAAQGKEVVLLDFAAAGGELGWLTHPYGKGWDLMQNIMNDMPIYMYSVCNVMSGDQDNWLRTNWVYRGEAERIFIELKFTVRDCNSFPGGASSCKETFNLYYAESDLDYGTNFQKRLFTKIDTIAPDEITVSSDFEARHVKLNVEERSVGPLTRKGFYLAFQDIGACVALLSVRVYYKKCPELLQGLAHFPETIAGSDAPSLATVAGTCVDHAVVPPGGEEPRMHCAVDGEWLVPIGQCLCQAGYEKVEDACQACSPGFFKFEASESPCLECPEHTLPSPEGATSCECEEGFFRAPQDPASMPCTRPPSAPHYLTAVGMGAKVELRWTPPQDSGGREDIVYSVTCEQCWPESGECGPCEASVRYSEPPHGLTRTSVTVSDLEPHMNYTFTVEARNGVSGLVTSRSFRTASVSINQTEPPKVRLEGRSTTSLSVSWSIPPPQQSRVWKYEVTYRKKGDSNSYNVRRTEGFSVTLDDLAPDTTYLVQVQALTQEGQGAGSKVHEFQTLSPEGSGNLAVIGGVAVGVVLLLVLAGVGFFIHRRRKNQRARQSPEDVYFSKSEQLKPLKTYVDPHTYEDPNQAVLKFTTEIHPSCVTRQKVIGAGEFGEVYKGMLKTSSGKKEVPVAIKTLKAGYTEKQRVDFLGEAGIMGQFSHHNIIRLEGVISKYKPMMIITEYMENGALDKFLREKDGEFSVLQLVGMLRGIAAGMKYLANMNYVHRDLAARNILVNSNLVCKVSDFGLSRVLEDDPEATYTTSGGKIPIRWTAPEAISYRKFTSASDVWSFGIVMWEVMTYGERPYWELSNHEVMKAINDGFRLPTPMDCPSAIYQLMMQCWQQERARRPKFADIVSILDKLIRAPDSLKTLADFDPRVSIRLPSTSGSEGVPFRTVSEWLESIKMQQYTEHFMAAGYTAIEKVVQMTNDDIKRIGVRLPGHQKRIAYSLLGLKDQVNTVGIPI

## COc1cc(C(=O)N2CCOCC2)c(F)cc1Nc1ncc(C(F)(F)F)c(NC2CC2)n1
DYRK2 (human); compound 1.0 µM
  residual activity: 40%
DYRK2 (human); compound 10.0 µM
  residual activity: 9%
PAK6 (human); compound 1.0 µM
  residual activity: 94%
PAK6 (human); compound 10.0 µM
  residual activity: 94%
MAP3K9 (human); compound 1.0 µM
  residual activity: 39%
MAP3K9 (human); compound 10.0 µM
  residual activity: 7%
MARK1 (human); compound 1.0 µM
  residual activity: 88%
MARK1 (human); compound 10.0 µM
  residual activity: 85%
BTK (human); compound 1.0 µM
  residual activity: 115%
EPHA2 (human); compound 1.0 µM
  residual activity: 81%
EPHA2 (human); compound 10.0 µM
  residual activity: 93%
HIPK2 (human); compound 1.0 µM
  residual activity: 70%
HIPK2 (human); compound 10.0 µM
  residual activity: 28%
MAPK11 (human); compound 1.0 µM
  residual activity: 98%
MAPK11 (human); compound 10.0 µM
  residual activity: 101%
PRKCZ (human); compound 1.0 µM
  residual activity: 101%
PRKCZ (human); compound 10.0 µM
  residual activity: 86%
CaMK1 (human); compound 1.0 µM
  residual activity: 92%
CaMK1 (human); compound 10.0 µM
  residual activity: 51%
MAPK14 (human); compound 1.0 µM
  residual activity: 84%
MAPK14 (human); compound 10.0 µM
  residual activity: 119%
MAPK13 (human); compound 1.0 µM
  residual activity: 97%
MARK3 (human); compound 1.0 µM
  residual activity: 91%
MARK3 (human); compound 10.0 µM
  residual activity: 61%
NUAK1 (human); compound 1.0 µM
  residual activity: 41%
NUAK1 (human); compound 10.0 µM
  residual activity: 9%
IKBKE (human); compound 1.0 µM
  residual activity: 94%
IKBKE (human); compound 10.0 µM
  residual activity: 55%
MAP2K6 (human); compound 1.0 µM
  residual activity: 71%
MAP2K6 (human); compound 10.0 µM
  residual activity: 31%
PAK7 (human); compound 1.0 µM
  residual activity: 94%
PAK7 (human); compound 10.0 µM
  residual activity: 79%
EPHB3 (human); compound 1.0 µM
  residual activity: 91%
EPHB3 (human); compound 10.0 µM
  residual activity: 105%
MST4 (human); compound 1.0 µM
  residual activity: 89%
MST4 (human); compound 10.0 µM
  residual activity: 87%
MAPKAPK5 (human); compound 1.0 µM
  residual activity: 77%
MAPKAPK5 (human); compound 10.0 µM
  residual activity: 49%
HIPK3 (human); compound 1.0 µM
  residual activity: 101%
HIPK1 (human); compound 1.0 µM
  residual activity: 92%
HIPK1 (human); compound 10.0 µM
  residual activity: 49%
LCK (mouse); compound 10.0 µM
  residual activity: 102%
PAK4 (human); compound 1.0 µM
  residual activity: 85%
PAK4 (human); compound 10.0 µM
  residual activity: 42%
ERBB4 (human); compound 1.0 µM
  residual activity: 74%
ERBB4 (human); compound 10.0 µM
  residual activity: 65%
CSNK2A1 (human); compound 1.0 µM
  residual activity: 96%
CSNK2A1 (human); compound 10.0 µM
  residual activity: 74%
DYRK1A (human); compound 1.0 µM
  residual activity: 78%
DYRK1A (human); compound 10.0 µM
  residual activity: 38%
[1]; compound 1.0 µM
  residual activity: 93%
[1]; compound 10.0 µM
  residual activity: 97%
EEF2K (human); compound 1.0 µM
  residual activity: 103%
EEF2K (human); compound 10.0 µM
  residual activity: 107%
DYRK3 (human); compound 1.0 µM
  residual activity: 88%
DYRK3 (human); compound 10.0 µM
  residual activity: 51%
ROCK2 (rat); compound 1.0 µM
  residual activity: 95%
ROCK2 (rat); compound 10.0 µM
  residual activity: 78%
TAOK1 (human); compound 1.0 µM
  residual activity: 99%
TAOK1 (human); compound 10.0 µM
  residual activity: 80%
NEK6 (human); compound 1.0 µM
  residual activity: 112%
NEK6 (human); compound 10.0 µM
  residual activity: 90%
DAPK1 (human); compound 1.0 µM
  residual activity: 53%
DAPK1 (human); compound 10.0 µM
  residual activity: 11%
RPS6KA5 KD1 KD2 (human); compound 1.0 µM
  residual activity: 85%
RPS6KA5 KD1 KD2 (human); compound 10.0 µM
  residual activity: 65%
EPHB1 (human); compound 1.0 µM
  residual activity: 93%
EPHB1 (human); compound 10.0 µM
  residual activity: 91%

## NCC(=O)Nc1ccc(-n2nc(C(F)(F)F)cc2-c2ccc3c(ccc4ccccc43)c2)cc1
DYRK2 (human); compound 1.0 µM
  residual activity: 89%
DYRK2 (human); compound 10.0 µM
  residual activity: 121%
PAK6 (human); compound 1.0 µM
  residual activity: 88%
PAK6 (human); compound 10.0 µM
  residual activity: 28%
MAP3K9 (human); compound 1.0 µM
  residual activity: 99%
MAP3K9 (human); compound 10.0 µM
  residual activity: 80%
MARK1 (human); compound 1.0 µM
  residual activity: 87%
MARK1 (human); compound 10.0 µM
  residual activity: 79%
BTK (human); compound 1.0 µM
  residual activity: 98%
BTK (human); compound 10.0 µM
  residual activity: 96%
EPHA2 (human); compound 1.0 µM
  residual activity: 92%
EPHA2 (human); compound 10.0 µM
  residual activity: 94%
HIPK2 (human); compound 1.0 µM
  residual activity: 88%
HIPK2 (human); compound 10.0 µM
  residual activity: 69%
MAPK11 (human); compound 1.0 µM
  residual activity: 92%
MAPK11 (human); compound 10.0 µM
  residual activity: 95%
PRKCZ (human); compound 1.0 µM
  residual activity: 94%
PRKCZ (human); compound 10.0 µM
  residual activity: 61%
CaMK1 (human); compound 1.0 µM
  residual activity: 109%
CaMK1 (human); compound 10.0 µM
  residual activity: 21%
MAPK14 (human); compound 1.0 µM
  residual activity: 100%
MAPK14 (human); compound 10.0 µM
  residual activity: 80%
MAPK13 (human); compound 1.0 µM
  residual activity: 96%
MAPK13 (human); compound 10.0 µM
  residual activity: 70%
MARK3 (human); compound 1.0 µM
  residual activity: 96%
MARK3 (human); compound 10.0 µM
  residual activity: 101%
NUAK1 (human); compound 1.0 µM
  residual activity: 85%
NUAK1 (human); compound 10.0 µM
  residual activity: 61%
IKBKE (human); compound 10.0 µM
  residual activity: 101%
MAP2K6 (human); compound 1.0 µM
  residual activity: 82%
MAP2K6 (human); compound 10.0 µM
  residual activity: 74%
PAK7 (human); compound 1.0 µM
  residual activity: 87%
PAK7 (human); compound 10.0 µM
  residual activity: 107%
EPHB3 (human); compound 1.0 µM
  residual activity: 72%
EPHB3 (human); compound 10.0 µM
  residual activity: 82%
MST4 (human); compound 1.0 µM
  residual activity: 80%
MST4 (human); compound 10.0 µM
  residual activity: 72%
MAPKAPK5 (human); compound 1.0 µM
  residual activity: 89%
MAPKAPK5 (human); compound 10.0 µM
  residual activity: 76%
HIPK3 (human); compound 1.0 µM
  residual activity: 94%
HIPK3 (human); compound 10.0 µM
  residual activity: 64%
HIPK1 (human); compound 1.0 µM
  residual activity: 104%
HIPK1 (human); compound 10.0 µM
  residual activity: 90%
LCK (mouse); compound 1.0 µM
  residual activity: 84%
LCK (mouse); compound 10.0 µM
  residual activity: 247%
PAK4 (human); compound 1.0 µM
  residual activity: 84%
PAK4 (human); compound 10.0 µM
  residual activity: 70%
ERBB4 (human); compound 1.0 µM
  residual activity: 106%
ERBB4 (human); compound 10.0 µM
  residual activity: 104%
CSNK2A1 (human); compound 1.0 µM
  residual activity: 111%
CSNK2A1 (human); compound 10.0 µM
  residual activity: 79%
DYRK1A (human); compound 10.0 µM
  residual activity: 82%
[1]; compound 1.0 µM
  residual activity: 91%
[1]; compound 10.0 µM
  residual activity: 53%
EEF2K (human); compound 10.0 µM
  residual activity: 75%
DYRK3 (human); compound 1.0 µM
  residual activity: 108%
ROCK2 (rat); compound 1.0 µM
  residual activity: 88%
ROCK2 (rat); compound 10.0 µM
  residual activity: 87%
TAOK1 (human); compound 1.0 µM
  residual activity: 103%
TAOK1 (human); compound 10.0 µM
  residual activity: 92%
NEK6 (human); compound 1.0 µM
  residual activity: 115%
NEK6 (human); compound 10.0 µM
  residual activity: 63%
DAPK1 (human); compound 1.0 µM
  residual activity: 95%
DAPK1 (human); compound 10.0 µM
  residual activity: 43%
RPS6KA5 KD1 KD2 (human); compound 1.0 µM
  residual activity: 110%
RPS6KA5 KD1 KD2 (human); compound 10.0 µM
  residual activity: 46%
EPHB1 (human); compound 1.0 µM
  residual activity: 72%
EPHB1 (human); compound 10.0 µM
  residual activity: 67%
